ChEMBL document CHEMBL1268913, “Carbocycles related to oseltamivir as influenza virus group-1-specific neuraminidase inhibitors. Binding to N1 enzymes in the context of virus-like particles” (J Med Chem, 2010)

How the values were obtained:
Neuraminidase = Neuraminidase (Influenza A virus, UniProt B4URF0); test: Inhibition of influenza A nuraminidase N1
[1] = test system: unidentified influenza virus; test: Antiviral activity against avian influenza virus H5N1; type: functional, organism-based

Neuraminidase, sequence (B4URF0 whole entry): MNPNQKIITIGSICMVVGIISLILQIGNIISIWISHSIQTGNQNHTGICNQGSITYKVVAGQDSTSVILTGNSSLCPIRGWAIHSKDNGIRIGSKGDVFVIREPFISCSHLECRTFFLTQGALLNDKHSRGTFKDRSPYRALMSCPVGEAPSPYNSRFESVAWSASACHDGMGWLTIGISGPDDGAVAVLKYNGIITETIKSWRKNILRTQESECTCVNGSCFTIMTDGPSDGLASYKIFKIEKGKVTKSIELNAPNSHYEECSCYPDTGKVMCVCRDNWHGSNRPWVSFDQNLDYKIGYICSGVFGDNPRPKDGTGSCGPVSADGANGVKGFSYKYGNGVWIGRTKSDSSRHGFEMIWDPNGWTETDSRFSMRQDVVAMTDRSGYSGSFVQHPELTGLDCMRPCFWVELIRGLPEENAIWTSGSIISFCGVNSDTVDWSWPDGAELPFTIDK

Compound	Ki (Neuraminidase) [µM]	other results
CCC(CC)O[C@@H]1CC(C(=O)O)=C[C@H](n2cc(CCc3ccccc3)nn2)[C@H]1NC(C)=O	1.2	
CCC(CC)O[C@@H]1CC(C(=O)O)=C[C@H](n2cc(C(O)CC)nn2)[C@H]1NC(C)=O (some centres not stated)	0.072	
CCC(CC)O[C@@H]1CC(C(=O)O)=C[C@H](NC(=N)N)[C@H]1NC(C)=O	0.00046	
CCC(CC)O[C@@H]1CC(C(=O)O)=C[C@H](n2cc(CCCO)nn2)[C@H]1NC(C)=O	0.46	
CCC(CC)O[C@@H]1CC(C(=O)O)=C[C@H](n2cc(C(C)(C)O)nn2)[C@H]1NC(C)=O	0.13	
CCC(CC)O[C@@H]1CC(C(=O)O)=C[C@H](n2cc(C3(O)CCCCC3)nn2)[C@H]1NC(C)=O		IC50 (Neuraminidase): 4.8 µM
CCC(CC)O[C@@H]1CC(C(=O)O)=C[C@H](n2cc(C3(O)CCCC3)nn2)[C@H]1NC(C)=O		IC50 (Neuraminidase): 11 µM
CCC(CC)O[C@@H]1CC(C(=O)O)=C[C@H](n2cc([C@]3(O)CC[C@H]4[C@@H]5CCc6cc(O)ccc6[C@H]5CC[C@@]43C)nn2)[C@H]1NC(C)=O	5.8	
CCC(O)c1cn([C@H]2C=C(C(=O)O)O[C@@H]([C@H](O)[C@H](O)CO)[C@@H]2NC(C)=O)nn1 (some centres not stated)		EC50 [1]: 6.4 µM
CCC(CC)O[C@@H]1CC(C(=O)O)C=C(n2cc(CCc3ccccc3)nn2)[C@H]1NC(C)=O (mixture of isomers)	60	
CCC(CC)O[C@@H]1CC(C(=O)O)C=C(n2cc(C(C)(C)O)nn2)[C@H]1NC(C)=O (mixture of isomers)	19	
CC(=O)N[C@H]1[C@H]([C@H](O)[C@H](O)CO)OC(C(=O)O)=C[C@@H]1O [NEU5AC2EN]	5.9	
